Publication PMC6291207 (ChemMedChem, 2018)

Assays:
CRBN = CRBN (Homo sapiens, UniProt Q96SW2); assay: SPR binding assay with immobilized His-tagged CRBN; settings: for Kd: read-out: CRBN Kd, surface plasmon resonance, average of at least 2 experiments, errors = standard error of the mean, N.B. = no binding observed
MM1S cells = settings: read-out: IC50 inhibition of cell proliferation, 72 hours, MTS assay
Aiolos = Aiolos (Homo sapiens, UniProt Q96SW2+Q9UKT9); settings: for Dmax (maximal degradation achieved), Aiolos: MM1S cells, 24 hours treatment, normalized to tubulin
Sequence of Aiolos (Q9UKT9 whole entry): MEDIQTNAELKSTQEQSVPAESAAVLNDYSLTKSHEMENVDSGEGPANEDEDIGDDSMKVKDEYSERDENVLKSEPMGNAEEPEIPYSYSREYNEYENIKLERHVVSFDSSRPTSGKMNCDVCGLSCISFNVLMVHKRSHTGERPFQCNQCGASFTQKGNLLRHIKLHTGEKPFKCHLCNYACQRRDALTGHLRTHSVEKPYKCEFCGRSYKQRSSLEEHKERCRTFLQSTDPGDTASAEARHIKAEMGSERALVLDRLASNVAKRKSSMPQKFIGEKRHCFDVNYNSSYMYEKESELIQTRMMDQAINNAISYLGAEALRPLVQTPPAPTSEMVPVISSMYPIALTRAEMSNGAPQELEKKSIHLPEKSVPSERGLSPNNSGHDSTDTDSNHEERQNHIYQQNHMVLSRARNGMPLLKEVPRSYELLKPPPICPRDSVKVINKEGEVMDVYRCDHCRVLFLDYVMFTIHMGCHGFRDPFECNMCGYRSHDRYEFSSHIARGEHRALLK
Sequence of Aiolos (Q96SW2 whole entry): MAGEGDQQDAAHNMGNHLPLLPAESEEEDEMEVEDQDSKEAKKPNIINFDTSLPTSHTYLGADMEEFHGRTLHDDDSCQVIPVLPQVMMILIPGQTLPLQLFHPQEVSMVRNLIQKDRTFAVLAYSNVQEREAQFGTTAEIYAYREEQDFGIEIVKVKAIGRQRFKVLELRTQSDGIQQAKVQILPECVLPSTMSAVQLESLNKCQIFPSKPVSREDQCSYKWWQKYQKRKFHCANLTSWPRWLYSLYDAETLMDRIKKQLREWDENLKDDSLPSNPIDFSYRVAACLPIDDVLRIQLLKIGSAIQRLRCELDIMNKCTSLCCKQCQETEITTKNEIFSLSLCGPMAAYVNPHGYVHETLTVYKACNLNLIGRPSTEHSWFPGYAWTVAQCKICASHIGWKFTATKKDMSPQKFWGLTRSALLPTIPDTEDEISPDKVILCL
Sequence of Aiolos (Q16531 whole entry partner): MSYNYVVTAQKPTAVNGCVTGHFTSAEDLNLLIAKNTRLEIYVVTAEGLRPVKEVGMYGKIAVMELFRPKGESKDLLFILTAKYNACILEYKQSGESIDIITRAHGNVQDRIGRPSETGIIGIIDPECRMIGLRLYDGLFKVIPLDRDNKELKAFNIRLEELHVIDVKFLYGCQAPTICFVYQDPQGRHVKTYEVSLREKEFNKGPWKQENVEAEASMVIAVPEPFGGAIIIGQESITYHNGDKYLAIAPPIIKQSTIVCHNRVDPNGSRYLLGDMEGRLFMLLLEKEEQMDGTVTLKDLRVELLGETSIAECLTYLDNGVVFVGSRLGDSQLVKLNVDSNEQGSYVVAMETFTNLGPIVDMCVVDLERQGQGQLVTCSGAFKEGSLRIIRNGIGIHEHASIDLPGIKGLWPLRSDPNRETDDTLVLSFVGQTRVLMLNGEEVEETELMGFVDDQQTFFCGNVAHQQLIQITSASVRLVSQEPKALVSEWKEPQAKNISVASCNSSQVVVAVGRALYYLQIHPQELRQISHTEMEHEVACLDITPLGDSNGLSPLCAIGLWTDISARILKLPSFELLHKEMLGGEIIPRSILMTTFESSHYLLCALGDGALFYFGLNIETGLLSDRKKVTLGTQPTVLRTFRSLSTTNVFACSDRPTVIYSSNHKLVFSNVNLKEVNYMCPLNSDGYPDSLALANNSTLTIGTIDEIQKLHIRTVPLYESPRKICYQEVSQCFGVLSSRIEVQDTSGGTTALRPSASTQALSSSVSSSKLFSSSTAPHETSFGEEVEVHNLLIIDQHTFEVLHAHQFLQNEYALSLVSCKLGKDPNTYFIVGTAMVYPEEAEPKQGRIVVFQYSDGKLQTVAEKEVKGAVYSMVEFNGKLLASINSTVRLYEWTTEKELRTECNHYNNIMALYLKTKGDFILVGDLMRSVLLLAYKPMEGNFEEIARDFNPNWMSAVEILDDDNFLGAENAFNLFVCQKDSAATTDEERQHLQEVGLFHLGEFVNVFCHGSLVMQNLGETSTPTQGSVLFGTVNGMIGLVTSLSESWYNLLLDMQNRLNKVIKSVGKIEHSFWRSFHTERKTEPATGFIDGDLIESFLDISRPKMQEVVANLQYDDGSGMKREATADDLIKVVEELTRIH

Sequence of CRBN (Q96SW2 whole entry): as the sequence (Q96SW2 whole entry) above

| Structure (SMILES) | Kd (CRBN) | IC50 (MM1S cells) | Dmax (maximal degradation achieved), Aiolos (Aiolos) | fold less affinity for CRBN than Pomalidomide and Compound 19 (CRBN; compared with Pomalidomide and Compound 19) | Dmax (Aiolos; MM1.S, read-out: Dmax (maximal degradation achieved), Aiolos) |
| --- | --- | --- | --- | --- | --- |
| Cc1cccc2c1C(=O)N(C1CCC(=O)NC1=O)C2=O (centres unmarked) [Compound 19] | 0.325 ± 0.024 µM | 0.128 µM | 85% |  |  |
| O=C1CCC(N2C(=O)c3cccc(F)c3C2=O)C(=O)N1 (centres unmarked) [Compound 17] | 0.558 ± 0.051 µM | 3.57 µM | 83% | roughly 2 fold |  |
| Nc1cccc2c1C(=O)N(C1CCC(=O)NC1=O)C2=O (centres unmarked) [Compound 13, Pomalidomide, reference compound] |  |  |  |  | > 95% |
